Measured values taken from patent US20210308089A1, “METHODS OF TREATING AND/OR PREVENTING VIRAL INFECTIONS AND/OR DISEASES CAUSED BY VIRUSES IN A SUBJECT IN NEED THEREOF” (priority 2020, published 2021).

Tested on: patients of the REDUCE-IT and earlier EPA placebo-controlled trials
Assay: Example 3: adverse events by risk ratio, icosapent ethyl vs placebo (candidate categories; infectious disease terms of interest)
Conditions: R-I

## CC/C=C\C/C=C\C/C=C\C/C=C\C/C=C\CCCC(=O)OCC [icosapent ethyl, eicosapentaenoic acid ethyl ester]
  AR: Bipolar Disease (AE table): 0.0%
  AR: Blood CPK increased (AE table): 1.6%
  AR: Blood glucose increased (AE table): 0.2%
  AR: Bone Fractures (AE table): 0.0%
  AR: Bronchiectasis (AE table): 0.1%
  AR: Bronchitis chronic (AE table): 0.2%
  AR: CKD (AE table): 1.3%
  AR: COPD (AE table): 2.7%
  AR: Carotid bruit (AE table): 0.4%
  AR: Cholestasis (AE table): 0.0%
  AR: Chrohn's Disease (AE table): 0.0%
  AR: Cognitive Decline: Attention disorders and disturbances (AE table): 0.0%
  AR: Cognitive Decline: Cognitive and attention disorders and disturbances (AE table): 0.0%
  AR: Cough (AE table): 5.9%
  AR: Decreased Appetite (AE table): 0.5%
  AR: Deep Venous Thromboembolism (AE table): 0.2%
  AR: Depression: Depressed mood disorders and disturbances (AE table): 2.9%
  AR: Depression: Depressive disorders (AE table): 2.8%
  AR: Depression: Depressive disorders - Agitated depression (AE table): 0.0%
  AR: Depression: Depressive disorders - Depression (AE table): 2.6%
  AR: Depression: Depressive disorders - Major depression (AE table): 0.0%
  AR: Depression: Depressive disorders - Persistent depressive disorder (AE table): 0.0%
  AR: Depression: Mood alterations - Depressed mood (AE table): 0.1%
  AR: Depression: Mood alterations - Depressive symptom (AE table): 0.0%
  AR: Depression: Mood alterations with depressive symptoms (AE table): 0.2%
  AR: Dermatitis psoriasiform (AE table): 0.0%
  AR: Dermatitis, allergic (AE table): 0.2%
  AR: Diabetic Nephropathy (AE table): 0.3%
  AR: ESRD (AE table): 0.1%
  AR: Ear infection (AE table): 0.9%
  AR: Embolism and Thrombosis (AE table): 1.2%
  AR: Emphysema (AE table): 0.4%
  AR: Epilepsy (AE table): 0.0%
  AR: Erectile dysfunction (AE table): 1.8%
  AR: Furuncle (AE table): 0.2%
  AR: Gastroenteritis, viral (AE table): 1.1%
  AR: Gastroesophageal reflux (AE table): 0.1%
  AR: Gingivitis (AE table): 0.2%
  AR: Glomerulonephritis and Nephrotic Syndrome (AE table): 0.0%
  AR: Guttate psoriasis (AE table): 0.0%
  AR: Helicobacter infection (AE table): 0.2%
  AR: Hepatitis C (AE table): 0.0%
  AR: Herpes Zoster (AE table): 1.8%
  AR: Herpes simplex (AE table): 0.2%
  AR: Hyperglycemia (AE table): 2.0%
  AR: Hyperkalemia (AE table): 1.1%
  AR: Hypertension (AE table): 8.1%
  AR: Hypertensive Crisis (AE Table): 0.9%
  AR: Hypokalemia (AE table): 2.0%
  AR: Hypomagnesemia (AE table): 0.9%
  AR: Infected bite (AE table): 0.1%
  AR: Influenza (AE table): 6.5%
  AR: Influenza like illness (AE table): 0.6%
  AR: Jaundice cholestatic (AE table): 0.0%
  AR: Large intestine polyps (AE table): 0.2%
  AR: Limb Fractures and Dislocations (AE table): 0.8%
  AR: Lupus (AE table): 0.0%
  AR: Microalbuminuria (AE table): 0.2%
  AR: Migraine (AE table): 0.2%
  AR: Mucosal inflammation (AE table): 0.1%
  AR: Multiple Sclerosis (AE table): 0.0%
  AR: Muscle spasms (AE table): 2.0%
  AR: NASH (AE table): 0.1%
  AR: NASH for b/l NFS >0.675 (AE table): 0.3%
  AR: NASH+Hepatic Steatosis for NFS >0.675 (AE table): 1,6%
  AR: Nasopharyngitis, Mild Severity (AE table): 7.7%
  AR: Nephrolithiasis (AE table): 2.0%
  AR: Nephropathies (AE table): 0.6%
  AR: Nephrotic Syndrome (AE table): 0.0%
  AR: Orthopnea (AE table): 0.1%
  AR: PTSD (AE table): 0.1%
  AR: Pancytopenia (AE table): 0.2%
  AR: Pneumonia (AE table): 6.6%
  AR: Proteinuria (AE table): 0.5%
  AR: Psoriasis (AE table): 0.5%
  AR: Psoriatic Conditions (AE table): 0.6%
  AR: Psychosis: Psychotic disorder NEC (AE table): 0.0%
  AR: Pulmonary Edema (AE table): 0.3%
  AR: Respiratory Failure (AE table): 0.5%
  AR: Respiratory tract infection (AE table): 1,2%
  AR: Rheumatoid Arthritis (AE table): 0.0%
  AR: Rhinitis (AE table): 0.5%
  AR: Schizophrenia NEC (AE table): 0.0%
  AR: Sepsis (AE table): 0.9%
  AR: Severe chronic obstructive pulmonary disease (AE table): 0.5%
  AR: Severe dermatitis, allergic (AE table): 0.1%
  AR: Severe gastroenteritis (AE table): 0.2%
  AR: Severe sepsis (AE table): 0.6%
  AR: Severe systemic inflammatory response syndrome (AE table): 0.1%
  AR: Severe urinary tract infection (AE table): 0.4%
  AR: Systemic inflammatory response syndrome (AE table): 0.1%
  AR: Tooth infection (AE table): 0.6%
  AR: Ulcerative Colitis (AE table): 0.0%
  AR: Upper respiratory tract infection (AE table): 7.7%
  AR: Vascular hypertensive disorder (AE table): 9.0%
  AR: Viral infection (AE table): 0.5%
  AR: Vulvovaginal mycotic infection (AE table): 0.2%
  AR: Wheezing (AE table): 0.7%
  ARR: ADHD (AE table): 0.0%
  ARR: Allergic sinusitis (AE table): −0.0%
  ARR: Alzheimer's Disease (AE table): 0.0%
  ARR: Asthma (AE table): 0.1%
  ARR: Atelectasis (AE table): −0.3%
  ARR: Bipolar Disease (AE table): −0.0%
  ARR: Blood CPK increased (AE table): −0.6%
  ARR: Blood glucose increased (AE table): −0.1%
  ARR: Bone Fractures (AE table): 0.0%
  ARR: Bronchiectasis (AE table): −0.1%
  ARR: Bronchitis chronic (AE table): −0.1%
  ARR: CKD (AE table): 0.1%
  ARR: COPD (AE table): 0.2%
  ARR: Carotid bruit (AE table): −0.3%
  ARR: Cholestasis (AE table): 0.0%
  ARR: Chrohn's Disease (AE table): −0.0%
  ARR: Cognitive Decline: Attention disorders and disturbances (AE table): 0.0%
  ARR: Cognitive Decline: Cognitive and attention disorders and disturbances (AE table): 0.0%
  ARR: Cough (AE table): 0.0%
  ARR: Decreased Appetite (AE table): 0.5%
  ARR: Deep Venous Thromboembolism (AE table): −0.1%
  ARR: Depression: Depressed mood disorders and disturbances (AE table): 0.3%
  ARR: Depression: Depressive disorders (AE table): 0.3%
  ARR: Depression: Depressive disorders - Agitated depression (AE table): 0.0%
  ARR: Depression: Depressive disorders - Depression (AE table): 0.2%
  ARR: Depression: Depressive disorders - Major depression (AE table): 0.0%
  ARR: Depression: Depressive disorders - Persistent depressive disorder (AE table): 0.0%
  ARR: Depression: Mood alterations - Depressed mood (AE table): 0.0%
  ARR: Depression: Mood alterations - Depressive symptom (AE table): −0.0%
  ARR: Depression: Mood alterations with depressive symptoms (AE table): −0.0%
  ARR: Dermatitis psoriasiform (AE table): 0.0%
  ARR: Dermatitis, allergic (AE table): −0.2%
  ARR: Diabetic Nephropathy (AE table): −0.0%
  ARR: ESRD (AE table): −0.0%
  ARR: Ear infection (AE table): −0.2%
  ARR: Embolism and Thrombosis (AE table): 0.1%
  ARR: Emphysema (AE table): −0.2%
  ARR: Epilepsy (AE table): 0.0%
  ARR: Erectile dysfunction (AE table): −0.4%
  ARR: Furuncle (AE table): −0.1%
  ARR: Gastroenteritis, viral (AE table): −0.3%
  ARR: Gastroesophageal reflux (AE table): −0.1%
  ARR: Gingivitis (AE table): −0.1%
  ARR: Glomerulonephritis and Nephrotic Syndrome (AE table): −0.1%
  ARR: Guttate psoriasis (AE table): 0.0%
  ARR: Helicobacter infection (AE table): −0.1%
  ARR: Hepatitis C (AE table): 0.0%
  ARR: Herpes Zoster (AE table): −0.1%
  ARR: Herpes simplex (AE table): −0.1%
  ARR: Hyperglycemia (AE table): −0.5%
  ARR: Hyperkalemia (AE table): −0.6%
  ARR: Hypertension (AE table): −0.6%
  ARR: Hypertensive Crisis (AE Table): −0.3%
  ARR: Hypokalemia (AE table): 0.1%
  ARR: Hypomagnesemia (AE table): −0.3%
  ARR: Infected bite (AE table): −0.0%
  ARR: Influenza (AE table): −0.2%
  ARR: Influenza like illness (AE table): −0.1%
  ARR: Jaundice cholestatic (AE table): 0.1%
  ARR: Large intestine polyps (AE table): −0.2%
  ARR: Limb Fractures and Dislocations (AE table): −0.1%
  ARR: Lupus (AE table): −0.0%
  ARR: Microalbuminuria (AE table): −0.3%
  ARR: Migraine (AE table): 0.2%
  ARR: Mucosal inflammation (AE table): −0.0%
  ARR: Multiple Sclerosis (AE table): −0.0%
  ARR: Muscle spasms (AE table): −1.1%
  ARR: NASH (AE table): −0.1%
  ARR: NASH for b/l NFS >0.675 (AE table): −0.4%
  ARR: NASH+Hepatic Steatosis for NFS >0.675 (AE table): −0.5%
  ARR: Nasopharyngitis, Mild Severity (AE table): −0.2%
  ARR: Nephrolithiasis (AE table): 0.1%
  ARR: Nephropathies (AE table): −0.2%
  ARR: Nephrotic Syndrome (AE table): −0.0%
  ARR: Orthopnea (AE table): −0.1%
  ARR: PTSD (AE table): −0.0%
  ARR: Pancytopenia (AE table): −0.1%
  ARR: Pneumonia (AE table): −0.3%
  ARR: Proteinuria (AE table): −0.2%
  ARR: Psoriasis (AE table): 0.3%
  ARR: Psoriatic Conditions (AE table): 0.3%
  ARR: Psychosis: Psychotic disorder NEC (AE table): −0.0%
  ARR: Pulmonary Edema (AE table): −0.2%
  ARR: Respiratory Failure (AE table): −0.0%
  ARR: Respiratory tract infection (AE table): −0.1%
  ARR: Rheumatoid Arthritis (AE table): −0.1%
  ARR: Rhinitis (AE table): −0.1%
  ARR: Schizophrenia NEC (AE table): −0.0%
  ARR: Sepsis (AE table): −0.2%
  ARR: Severe chronic obstructive pulmonary disease (AE table): −0.1%
  ARR: Severe dermatitis, allergic (AE table): −0.1%
  ARR: Severe gastroenteritis (AE table): −0.1%
  ARR: Severe sepsis (AE table): −0.2%
  ARR: Severe systemic inflammatory response syndrome (AE table): −0.1%
  ARR: Severe urinary tract infection (AE table): −0.2%
  ARR: Systemic inflammatory response syndrome (AE table): −0.1%
  ARR: Tooth infection (AE table): −0.2%
  ARR: Ulcerative Colitis (AE table): −0.0%
  ARR: Upper respiratory tract infection (AE table): −0.2%
  ARR: Vascular hypertensive disorder (AE table): −0.8%
  ARR: Vulvovaginal mycotic infection (AE table): −0.1%
  ARR: Wheezing (AE table): −0.3%
  NNT: ADHD (AE table): −8362005
  NNT: Allergic sinusitis (AE table): 2046
  NNT: Alzheimer's Disease (AE table): −3344802
  NNT: Asthma (AE table): −1019
  NNT: Atelectasis (AE table): 372
  NNT: Bipolar Disease (AE table): 2045
  NNT: Blood CPK increased (AE table): 164
  NNT: Blood glucose increased (AE table): 682
  NNT: Bone Fractures (AE table): −4088
  NNT: Bronchiectasis (AE table): 1364
  NNT: Bronchitis chronic (AE table): 1023
  NNT: CKD (AE table): −680
  NNT: COPD (AE table): −453
